Data set [1] deals with HeLa. The experiment in a line: Drug uptake in human HeLa cells assessed as mean fluorescence intensity at 5 uM using FITC-labeled compound incubated for 2 hrs by flow cytometry (reference value: 86). In kind it is ADME, cell-based. (In general: A flow cytometer gives signals particle by particle.)
Data set [2] is described as follows: Stability in 25% human serum assessed as compound degradation at 5 uM after 3 hrs incubated at 37 degC by reversed-phase HPLC method. The following applies: read-out: Drug degradation. The format is ADME, cell-free.
For data set [3], the system named is Serum. The experiment in a line: Drug metabolism in 25% human serum assessed as compound 2 formation at 5 uM incubated at 37 degC by MALDI-TOF mass spectrometry. In kind it is ADME, cell-free.
Data set [4] concerns the target T1, Peptidyl-prolyl cis-trans isomerase NIMA-interacting 1 (Homo sapiens, UniProt Q13526, S16A/Y23A). The experiment in a line: Binding affinity to N-terminal MBP fused and Texas-red-labeled full-length human Pin1 S16A/Y23A mutant expressed in Escherichia coli assessed as increase in fluorescence anisotropy by spectrofluorimetry. The following applies: read-out: Kd. A general note: Fluorescence polarisation rises when a labelled molecule tumbles more slowly, as on binding a larger partner.

In data set [5] the test system is HeLa. The experiment in a line: Antiproliferative activity against human HeLa cells assessed as reduction in cell growth incubated for 72 hrs by MTT assay. In kind it is functional, cell-based. Conditions: Homo sapiens, HeLa, 72 h; read-out: IC50. Background: Formazan colour is commonly taken as a measure of viable cells.
The subject of data set [6] is Serum. The experiment in a line: Drug level in 25% human serum treated with at 5 uM peptide-1 assessed as compound formation incubated at 37 degC by MALDI-TOF mass spectrometry. In kind it is ADME, cell-free.
In data set [7] the target is T2, Peptidyl-prolyl cis-trans isomerase NIMA-interacting 4 (Homo sapiens, UniProt Q9Y237). The experiment in a line: Inhibition of Pin4 (unknown origin) at 5 uM pre-incubated for 10 mins before addition of Suc-Ala-Glu-Pro-Phe-pNA substrate in presence of alpha-chymotrypsin by UV/Vis spectrophotometry.
In data set [8] the target is T1, Peptidyl-prolyl cis-trans isomerase NIMA-interacting 1. The experiment in a line: (§1) Inhibition of N-terminal MBP fused and Texas-red-labeled full-length human Pin1 S16A/Y23A mutant expressed in Escherichia coli pre-incubated for 10 mins before addition of Suc-Ala-Glu-Pro-Phe-pNA substrate in presence of alpha-chymotrypsin by UV/Vis spectrophotometry.
For data set [9], the system named is Peptidyl-prolyl cis-trans isomerase NIMA-interacting 1 (Homo sapiens), Q13526 [S16A,Y23A]. The description is as §1.
Data set [10] has as its target Albumin (Bos taurus, UniProt P02769). The experiment in a line: Binding affinity to bovine serum albumin. In kind it is ADME.
Data set [11] has as its target Peptidyl-prolyl cis-trans isomerase NIMA-interacting 1 (Homo sapiens) (UniProt Q13526). The experiment in a line: Inhibition of Pin1 in human HeLa cells assessed as increase in PML protein levels at 1 uM incubated for 2 hrs by Western blotting method relative to untreated control. The format is cell-based.
The target is the same in data set [12]. The experiment in a line: Inhibition of Pin1 in human HeLa cells assessed as increase in PML protein levels at 0.2 uM incubated for 2 hrs by Western blotting method relative to untreated control. In kind it is cell-based.
In data set [13] the target is T1, Peptidyl-prolyl cis-trans isomerase NIMA-interacting 1. The experiment in a line: (§2) Inhibition of FITC-labeled peptide-1 binding to N-terminal MBP fused and Texas-red-labeled full-length human Pin1 S16A/Y23A mutant expressed in Escherichia coli assessed as increase in fluorescence anisotropy by spectrofluorimetry.
The test system of data set [14] is Peptidyl-prolyl cis-trans isomerase NIMA-interacting 1 (Homo sapiens), Q13526 [S16A,Y23A]. The data set is described as §2.
The target in data set [15] is Peptidyl-prolyl cis-trans isomerase A (Homo sapiens) (UniProt P62937). The experiment in a line: Inhibition of cyclophilin A (unknown origin) up to 5 uM pre-incubated for 10 mins before addition of Suc-Ala-Glu-Pro-Phe-pNA substrate in presence of alpha-chymotrypsin by UV/Vis spectrophotometry.
For data set [16], the target named is T3, Tyrosine-protein phosphatase non-receptor type 11 (Homo sapiens) (UniProt Q06124).
T3 sequence (whole entry): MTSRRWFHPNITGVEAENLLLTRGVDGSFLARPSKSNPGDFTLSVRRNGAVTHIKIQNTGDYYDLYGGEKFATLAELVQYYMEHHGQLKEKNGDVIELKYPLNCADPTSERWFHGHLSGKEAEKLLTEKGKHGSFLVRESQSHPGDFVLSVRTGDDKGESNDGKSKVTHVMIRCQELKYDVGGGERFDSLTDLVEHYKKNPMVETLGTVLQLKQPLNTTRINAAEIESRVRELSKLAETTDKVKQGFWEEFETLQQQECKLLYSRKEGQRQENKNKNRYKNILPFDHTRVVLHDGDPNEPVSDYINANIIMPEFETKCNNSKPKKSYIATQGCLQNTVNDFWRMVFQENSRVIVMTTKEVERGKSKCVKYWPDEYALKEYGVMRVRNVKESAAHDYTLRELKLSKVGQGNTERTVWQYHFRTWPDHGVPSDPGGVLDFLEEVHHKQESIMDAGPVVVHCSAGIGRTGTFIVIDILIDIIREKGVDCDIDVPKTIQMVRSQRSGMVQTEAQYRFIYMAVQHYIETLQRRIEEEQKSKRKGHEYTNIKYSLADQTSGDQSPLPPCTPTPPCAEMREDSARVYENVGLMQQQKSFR
The experiment in a line: Binding affinity to SHP2 (unknown origin).

The target of data set [17] is GTPase KRas (Homo sapiens) (UniProt P01116). The experiment in a line: Binding affinity to K-Ras (unknown origin).
The target in data set [18] is Tumor necrosis factor (Homo sapiens) (UniProt P01375). The experiment in a line: Binding affinity to TNFalpha (unknown origin).
The test system of data set [19] is HeLa. The experiment in a line: Growth inhibition of human HeLa cells at 5 uM incubated for 3 days by MTT assay. In kind it is functional. The following applies: 72 h, read-out: GI.
The nature of data set [20]: Stability in 25% human serum assessed as intact parent compound level at 5 uM after 6 hrs incubated at 37 degC by reversed-phase HPLC method. Conditions: read-out: Stability. The format is ADME, cell-free.
In data set [21] the target is T2, Peptidyl-prolyl cis-trans isomerase NIMA-interacting 4. The experiment in a line: Inhibition of Pin4 (unknown origin) pre-incubated for 10 mins before addition of Suc-Ala-Glu-Pro-Phe-pNA substrate in presence of alpha-chymotrypsin by UV/Vis spectrophotometry.
Data set [22] addresses Growth factor receptor-bound protein 2 (Homo sapiens) (UniProt P62993). The experiment in a line: Binding affinity to Grb2 SH2 domain (unknown origin).
Data set [23] addresses Tyrosine-protein phosphatase non-receptor type 6 (Homo sapiens) (UniProt P29350). The experiment in a line: Binding affinity to SHP1 (unknown origin).
Data set [24] concerns the target T4, Tyrosine-protein phosphatase non-receptor type 1 (Homo sapiens) (UniProt P18031).
T4 sequence (whole entry): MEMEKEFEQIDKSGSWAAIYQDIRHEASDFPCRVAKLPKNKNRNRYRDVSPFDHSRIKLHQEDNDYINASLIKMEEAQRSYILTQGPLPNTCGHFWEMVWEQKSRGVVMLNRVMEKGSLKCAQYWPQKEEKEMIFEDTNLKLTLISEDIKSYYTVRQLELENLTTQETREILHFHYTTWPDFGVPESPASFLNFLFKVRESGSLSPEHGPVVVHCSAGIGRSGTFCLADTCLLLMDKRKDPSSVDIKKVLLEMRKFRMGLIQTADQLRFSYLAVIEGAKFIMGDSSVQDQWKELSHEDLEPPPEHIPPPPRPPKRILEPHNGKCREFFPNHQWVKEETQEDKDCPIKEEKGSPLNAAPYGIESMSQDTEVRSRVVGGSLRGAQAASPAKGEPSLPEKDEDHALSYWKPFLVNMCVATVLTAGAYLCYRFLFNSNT
The experiment in a line: Binding affinity to PTP1B (unknown origin).

The test system of data set [25] is FKBP1A. The experiment in a line: Inhibition of FKBP12 (unknown origin) up to 5 uM pre-incubated for 10 mins before addition of Suc-Ala-Glu-Pro-Phe-pNA substrate in presence of alpha-chymotrypsin by UV/Vis spectrophotometry. The following applies: Homo sapiens.

Activity calls are given as the source filed them. No cut-off for these calls is given here.

T1 sequence (Q13526 whole entry S16A/Y23A, the tested form may be a part): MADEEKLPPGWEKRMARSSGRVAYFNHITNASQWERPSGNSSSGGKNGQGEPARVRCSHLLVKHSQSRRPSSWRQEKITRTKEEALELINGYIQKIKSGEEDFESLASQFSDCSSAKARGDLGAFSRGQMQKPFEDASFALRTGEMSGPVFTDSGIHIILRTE
Peptidyl-prolyl cis-trans isomerase NIMA-interacting 1 (Homo sapiens), sequence (Q13526 whole entry): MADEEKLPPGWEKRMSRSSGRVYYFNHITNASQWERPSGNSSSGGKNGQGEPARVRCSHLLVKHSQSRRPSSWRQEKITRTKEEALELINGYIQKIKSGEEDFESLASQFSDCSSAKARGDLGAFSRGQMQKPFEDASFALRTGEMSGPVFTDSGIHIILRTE
T2 sequence (Q9Y237 whole entry, the tested form may be a part): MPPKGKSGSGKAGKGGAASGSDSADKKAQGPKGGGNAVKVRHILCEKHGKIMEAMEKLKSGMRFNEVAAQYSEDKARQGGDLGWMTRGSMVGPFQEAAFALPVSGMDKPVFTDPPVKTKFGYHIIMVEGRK
Peptidyl-prolyl cis-trans isomerase NIMA-interacting 1 (Homo sapiens), Q13526 [S16A,Y23A], sequence (Q13526 whole entry S16A/Y23A): as the sequence (Q13526 whole entry S16A/Y23A, the tested form may be a part) above
Tyrosine-protein phosphatase non-receptor type 6 (Homo sapiens), sequence (P29350 whole entry): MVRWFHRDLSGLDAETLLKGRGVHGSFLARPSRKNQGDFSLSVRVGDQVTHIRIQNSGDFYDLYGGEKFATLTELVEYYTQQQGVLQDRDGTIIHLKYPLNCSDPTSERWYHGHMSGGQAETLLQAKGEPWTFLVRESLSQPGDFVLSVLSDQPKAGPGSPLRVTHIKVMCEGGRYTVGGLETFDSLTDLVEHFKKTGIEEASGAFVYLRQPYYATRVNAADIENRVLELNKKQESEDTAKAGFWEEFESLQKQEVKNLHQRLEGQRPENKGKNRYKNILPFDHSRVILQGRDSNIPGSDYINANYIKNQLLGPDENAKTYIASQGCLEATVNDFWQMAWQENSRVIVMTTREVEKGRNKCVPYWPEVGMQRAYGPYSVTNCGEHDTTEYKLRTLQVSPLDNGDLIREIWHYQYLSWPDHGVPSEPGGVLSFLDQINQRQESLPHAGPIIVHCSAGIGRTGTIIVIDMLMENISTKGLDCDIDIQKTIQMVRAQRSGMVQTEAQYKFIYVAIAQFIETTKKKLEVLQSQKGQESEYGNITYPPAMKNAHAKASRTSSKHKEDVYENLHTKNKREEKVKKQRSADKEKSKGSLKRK
Tumor necrosis factor (Homo sapiens), sequence (P01375 whole entry): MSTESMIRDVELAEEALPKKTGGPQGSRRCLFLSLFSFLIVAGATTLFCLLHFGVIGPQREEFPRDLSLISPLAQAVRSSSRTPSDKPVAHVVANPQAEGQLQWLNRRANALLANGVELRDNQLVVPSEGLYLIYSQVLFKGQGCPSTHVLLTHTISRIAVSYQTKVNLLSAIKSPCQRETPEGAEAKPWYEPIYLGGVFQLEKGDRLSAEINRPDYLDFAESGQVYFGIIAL
Peptidyl-prolyl cis-trans isomerase A (Homo sapiens), sequence (P62937 whole entry, looked up): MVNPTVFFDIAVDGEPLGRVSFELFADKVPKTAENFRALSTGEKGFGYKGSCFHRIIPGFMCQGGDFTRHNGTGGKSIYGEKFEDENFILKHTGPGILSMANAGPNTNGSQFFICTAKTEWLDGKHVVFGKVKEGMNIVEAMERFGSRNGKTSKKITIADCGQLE
Albumin, sequence (P02769 whole entry): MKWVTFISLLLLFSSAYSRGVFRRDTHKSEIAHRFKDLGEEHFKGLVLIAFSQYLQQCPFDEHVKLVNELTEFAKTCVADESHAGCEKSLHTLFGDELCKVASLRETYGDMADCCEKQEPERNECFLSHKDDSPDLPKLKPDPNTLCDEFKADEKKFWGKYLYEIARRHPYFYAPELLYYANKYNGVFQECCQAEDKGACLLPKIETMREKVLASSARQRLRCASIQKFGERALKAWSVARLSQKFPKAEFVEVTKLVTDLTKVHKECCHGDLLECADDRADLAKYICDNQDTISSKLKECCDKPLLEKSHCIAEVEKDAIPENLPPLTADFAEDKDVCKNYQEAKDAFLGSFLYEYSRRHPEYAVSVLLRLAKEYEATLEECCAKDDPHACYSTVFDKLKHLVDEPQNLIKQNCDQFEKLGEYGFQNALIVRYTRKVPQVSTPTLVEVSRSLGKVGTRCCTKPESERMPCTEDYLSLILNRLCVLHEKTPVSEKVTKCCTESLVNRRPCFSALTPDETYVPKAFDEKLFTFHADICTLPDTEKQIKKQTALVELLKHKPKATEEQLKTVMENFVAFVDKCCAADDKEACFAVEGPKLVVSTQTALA
Growth factor receptor-bound protein 2 (Homo sapiens), sequence (P62993 whole entry, looked up, the tested form may be a part): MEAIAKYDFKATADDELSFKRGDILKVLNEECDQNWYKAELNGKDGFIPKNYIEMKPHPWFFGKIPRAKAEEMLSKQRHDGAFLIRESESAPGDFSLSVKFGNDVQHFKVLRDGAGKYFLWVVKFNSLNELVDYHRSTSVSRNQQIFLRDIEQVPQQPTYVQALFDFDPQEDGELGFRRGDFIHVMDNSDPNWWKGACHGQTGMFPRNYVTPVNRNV
GTPase KRas (Homo sapiens), sequence (P01116 whole entry, looked up): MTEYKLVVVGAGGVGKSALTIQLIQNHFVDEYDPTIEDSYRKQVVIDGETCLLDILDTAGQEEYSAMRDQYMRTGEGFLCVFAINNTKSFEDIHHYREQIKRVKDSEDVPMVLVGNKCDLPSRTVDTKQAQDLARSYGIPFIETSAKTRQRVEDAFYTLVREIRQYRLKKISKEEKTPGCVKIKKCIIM

As a reminder, the Kd is the equilibrium constant for the complex coming apart. As usually defined, the IC50 is the concentration needed to halve the response being measured. Consider `C[C@@H]1NC(=O)[C@H](CCCNC(=N)N)NC(=O)[C@H](Cc2ccc3ccccc3c2)NC(=O)[C@@H]2CCCCN2C(=O)[C@@H]([C@H](C)OP(=O)(O)O)NC(=O)CN(C)C(=O)[C@@H](C)NC(=O)c2cc3cc(c2)C(=O)NC[C@H](NC(=O)[C@@H](C)NC1=O)C(=O)N[C@@H](Cc1ccccc1)C(=O)N[C@@H](Cc1ccc2ccccc2c1)C(=O)N[C@@H](CCCNC(=N)N)C(=O)N[C@@H](CCCNC(=N)N)C(=O)N[C@@H](CCCNC(=N)N)C(=O)N[C@@H](CCCNC(=N)N)C(=O)N[C@H](C(=O)N[C@@H](CCCCN)C(=O)O)CNC3=O`, for which, in data set [1], the Flu intensity worked out at 2040. Also, the metabolised at 3 h, 5 µM in [2] is 50%. In addition, in data set [3], the Drug metabolism entry is on record as “metabolite_detected”. In addition, in [4], the Kd turned out to be 72 nM. The IC50 in [5] was 2500 nM.
On to `C[C@@H]1NC(=O)[C@H](CCCNC(=N)N)NC(=O)[C@H](Cc2ccc3ccccc3c2)NC(=O)[C@@H]2CCCCN2C(=O)[C@@H]([C@H](C)O)NC(=O)CN(C)C(=O)[C@@H](C)NC(=O)c2cc3cc(c2)C(=O)NC[C@H](NC(=O)[C@@H](C)NC1=O)C(=O)N[C@@H](Cc1ccccc1)C(=O)N[C@@H](Cc1ccc2ccccc2c1)C(=O)N[C@@H](CCCNC(=N)N)C(=O)N[C@@H](CCCNC(=N)N)C(=O)N[C@@H](CCCNC(=N)N)C(=O)N[C@@H](CCCNC(=N)N)C(=O)N[C@H](C(=O)N[C@@H](CCCCN)C(=O)O)CNC3=O`, for which the Drug metabolism entry in data set [6] is reported as “metabolite_detected”. The Kd in data set [4] was found to be 620 nM.
A word on the inhibition: it is how much of the control response was suppressed. For the compound `C[C@@H]1NC(=O)[C@H](CCCNC(=N)N)NC(=O)[C@H](Cc2ccc3ccccc3c2)NC(=O)[C@H]2CCCCN2C(=O)[C@@H]([C@H](C)O)NC(=O)[C@H](Cc2ccc(F)cc2)NC(=O)[C@@H](Cc2ccc(F)cc2)NC(=O)c2cc3cc(c2)C(=O)NC[C@H](NC(=O)[C@@H](C)NC1=O)C(=O)N[C@@H](Cc1ccccc1)C(=O)N[C@@H](Cc1ccc2ccccc2c1)C(=O)N[C@@H](CCCNC(=N)N)C(=O)N[C@@H](CCCNC(=N)N)C(=O)N[C@@H](CCCNC(=N)N)C(=O)N[C@@H](CCCNC(=N)N)C(=O)N[C@H](C(=O)N[C@@H](CCCCN)C(=O)O)CNC3=O`, the inhibition in data set [7] was 15%; in data set [9] it was “Dose-dependent effect”; in [14], “Dose-dependent effect”. Further, the IC50 in [8] was 170 nM; in [13] it was 190 nM; in data set [21] it was 34000 nM; in data set [5] it was 1000 nM. Also, the Kd in [10] is 20000 nM; in [4], 120 nM. For the same compound, the results for the fold change (FC) in data set [11] and in [12] were 3.3 and 1.8, respectively. For the same compound, the Flu intensity in data set [1] worked out at 8320. Moreover, the inhibition result in data set [15] and in data set [25] was “inactive” in each case. Besides, the outcome in data set [16], in [17], in [18], in data set [22], in [23] and in data set [24] was inactive. The inhibition of growth at 5 µM in data set [19] was more than 60%. Moreover, in data set [20], the remaining at 6 h, 5 µM turned out to be 97%.

(Values after ChEMBL document CHEMBL3588828, “A Selective, Cell-Permeable Nonphosphorylated Bicyclic Peptidyl Inhibitor against Peptidyl-Prolyl Isomerase Pin1” (J Med Chem, 2015).)
